Measured values taken from US20110189213A1, “MYBL2 EPITOPE PEPTIDES AND VACCINES CONTAINING THE SAME” (Oncotherapy Science, Inc., priority 2008, published 2011).
“Also recorded” adds a separate entry of the source.

How the values were obtained:
Format in all cases: cell-based, human
[1] = test system: peptide-pulsed A24LCL cells; test: IFN-gamma ELISPOT assay on CTLs induced with MYBL2 peptides; conditions: against peptide-pulsed target cells vs control without peptide, day 21 after 3rd stimulation
From the text: (§1) Monocyte-derived dendritic cells (DCs) were used as antigen-presenting cells (APCs) to induce cytotoxic T lymphocyte (CTL) responses against peptides presented on human leukocyte antigen (HLA). DCs were generated in vitro as described elsewhere (Nakahara S et al., Cancer Res 2003 Jul. 15, 63(14): 4112-8). Specifically, peripheral blood mononuclear cells (PBMCs) isolated from a normal volunteer (HLA-A*2402 positive) by Ficoll-Plaque (Pharmacia) solution were separated by adherence to a plastic tissue culture dish (Becton Dickinson) so as to enrich them as the monocyte fraction. The monocyte-enriched population was cultured in the presence of 1000 U/ml of granulocyte-macrophage colony-stimulating factor (GM-CSF) (R&D System) and 1000 U/ml of interleukin (IL)-4 (R&D System) in AIM-V Medium (Invitrogen) containing 2% heat-inactivated autologous serum (AS). After 7 days of culture, the cytokine-induced DCs were pulsed with 20 mcg/ml of each of the synthesized peptides in the presence of 3 mcg/ml of beta2-microglobulin for 3 hr at 37 degrees C. in AIM-V Medium. The generated cells appeared to express DC-associated molecules, such as CD80, CD83, CD86 and HLA class II, on their cell surfaces (data not shown). These peptide-pulsed DCs were then inactivated by Mitomycin C (MMC) (30 mcg/ml for 30 min) and mixed at a 1:20 ratio with autologous CD8+ T cells, obtained by positive selection with CD8 Positive Isolation Kit (Dynal). These cultures were set up in 48-well plates (Corning); each well contained 1.5×10^4 peptide-pulsed DCs, 3×10^5 CD8+ T cells and 10 ng/ml of IL-7 (R&D System) in 0.5 ml of AIM-V/2% AS medium. Three days later, these cultures were supplemented with IL-2 (CHIRON) to a final concentration of 20 IU/ml. On day 7 and 14, the T cells were further stimulated with the autologous peptide-pulsed DCs. The DCs were prepared each time by the same way described above. CTL was tested against peptide-pulsed A24LCL cells after the 3rd round of peptide stimulation on day 21 (Tanaka H et al., Br J Cancer 2001 Jan. 5, 84(1): 94-9; Umano Y et al., Br J Cancer 2001 Apr. 20, 84(8): 1052-7; Uchida N et al., Clin Cancer Res 2004 Dec. 15, 10(24): 8577-86; Suda T et al., Cancer Sci 2006 May, 97(5): 411-9; Watanabe T et al., Cancer Sci 2005 August, 96(8): 498-506).
(§2) To examine specific CTL activity, interferon (IFN)-gamma enzyme-linked immunospot (ELISPOT) assay and IFN-gamma enzyme-linked immunosorbent assay (ELISA) were performed. Specifically, peptide-pulsed A24LCL (1×10^4/well) was prepared as stimulator cells. Cultured cells in 48 wells were used as responder cells. IFN-gamma ELISPOT assay and IFN-gamma ELISA assay were performed under manufacture procedure.

[2] = test system: peptide-pulsed A24LCL cells; test: IFN-gamma ELISA assay on established CTL lines; conditions: target cells pulsed with corresponding peptide vs target cells without peptide pulse
Method: CTLs were expanded in culture using the method similar to the one described by Riddell et al. (Walter E A et al., N Engl J Med 1995 Oct. 19, 333(16): 1038-44; Riddell S R et al., Nat Med 1996 February, 2(2): 216-23). A total of 5×10^4 CTLs were suspended in 25 ml of AIM-V/5% AS medium with 2 kinds of human B-lymphoblastoid cell lines, inactivated by MMC, in the presence of 40 ng/ml of anti-CD3 monoclonal antibody (Pharmingen). One day after initiating the cultures, 120 IU/ml of IL-2 were added to the cultures. The cultures were fed with fresh AIM-V/5% AS medium containing 30 IU/ml of IL-2 on days 5, 8 and 11 (Tanaka H et al., Br J Cancer 2001 Jan. 5, 84(1): 94-9; Umano Y et al., Br J Cancer 2001 Apr. 20, 84(8): 1052-7; Uchida N et al., Clin Cancer Res 2004 Dec. 15, 10(24): 8577-86; Suda T et al., Cancer Sci 2006 May, 97(5): 411-9; Watanabe T et al., Cancer Sci 2005 August, 96(8): 498-506).
as §2

[3] = test system: CD8+ T cells stimulated with peptide-pulsed DCs (HLA-A*2402 positive); test: In vitro CTL induction and establishment of CTL lines; conditions: cells of positive wells expanded
From the text: as §1, with “CTL was tested against peptide-pulsed A24LCL cells after the 3rd round of peptide stimulation on day 21 (Tanaka H et al., Br J Cancer 2001 Jan. 5, 84(1): 94-9; Umano Y et al., Br J Cancer 2001 Apr. 20, 84(8): 1052-7; Uchida N et al., Clin Cancer Res 2004 Dec. 15, 10(24): 8577-86; Suda T et al., Cancer Sci 2006 May, 97(5): 411-9; Watanabe T et al., Cancer Sci 2005 August, 96(8): 498-506).” left out

Row | Sequence | IFN-gamma production of peptide-stimulated CTLs (ELISPOT) ([1]; listed as MYBL2-A24-10-197) | IFN-gamma production of established CTL lines (ELISA) [2] | IFN-gamma production of established CTL lines (ELISA) ([2]; listed as MYBL2-A24-10-197) | Establishment of CTL lines [3] | IFN-gamma production of peptide-stimulated CTLs (ELISPOT) ([1]; listed as MYBL2-A24-9-100) | IFN-gamma production of established CTL lines (ELISA) ([2]; listed as MYBL2-A24-9-100) | IFN-gamma production of peptide-stimulated CTLs (ELISPOT) ([1]; listed as MYBL2-A24-10-48) | IFN-gamma production of established CTL lines (ELISA) ([2]; listed as MYBL2-A24-10-48) | IFN-gamma production of peptide-stimulated CTLs (ELISPOT) ([1]; listed as MYBL2-A24-9-370) | IFN-gamma production of established CTL lines (ELISA) ([2]; listed as MYBL2-A24-9-370)
1 | KPPVYLLLEL [SEQ ID NO: 13, 10-mer peptide derived from MYBL2, start position 197] | potent IFN-gamma production as compared to the control wells; also recorded: potent IFN-gamma production as compared with the control | potent IFN-gamma production against the target cells pulsed with corresponding peptide | potent IFN-gamma production as compared with the control | expanded and established CTL lines | – | – | – | – | – | –
2 | KYGTKQWTL [SEQ ID NO: 1, 9-mer peptide derived from MYBL2, start position 100] | – | potent IFN-gamma production against the target cells pulsed with corresponding peptide | – | expanded and established CTL lines | potent IFN-gamma production as compared to the control wells; also recorded: potent IFN-gamma production as compared with the control | potent IFN-gamma production as compared with the control | – | – | – | –
3 | QFGQQDWKFL [SEQ ID NO: 12, 10-mer peptide derived from MYBL2, start position 48] | – | – | – | – | – | – | typical negative data of CTL response; also recorded: no specific IFN-gamma production was detected | typical negative data of CTL response; also recorded: no specific IFN-gamma production against peptide-pulsed target cells was observed | – | –
4 | EYRLDGHTI [SEQ ID NO: 2, 9-mer peptide derived from MYBL2, start position 370] | – | potent IFN-gamma production against the target cells pulsed with corresponding peptide | – | expanded and established CTL lines | – | – | – | – | potent IFN-gamma production as compared to the control wells; also recorded: potent IFN-gamma production as compared with the control | potent IFN-gamma production as compared with the control
